Laboratory results as given in US7148029B2, “Immunoassay for neonicotinyl insecticides” (Syngenta Crop Protection, Inc., priority 1999, dated 2006).

Columns and labels:
[1] = tested on: polyclonal antibody of the thiamethoxam immunoassay; assay: Cross reactivity of the thiamethoxam immunoassay (competitive enzyme immunoassay in antibody-coated tubes); type: binding; design: key to Percent Reactivity Relative to Thiamethoxam: NR, non-reactive; details: for Percent Reactivity Relative to Thiamethoxam: test substances in 1% methanol/water, 1000 to 0.01 ng/ml
Experimental: The antibody-coated polystyrene culture tubes are labeled and placed in the tube rack such that the first and last tubes are standards and the remaining standards and samples are mixed. Sample and standard solutions (0.50-ml) are added to the corresponding tubes. A similar volume of enzyme conjugate solution is added. The rack is gently shaken to mix the solutions and set to incubate for 20 min at room temperature. The contents of all tubes are removed by inverting the rack over a stainless steel pan. Each tube is washed to overflowing with distilled water. The rack is inverted over the sink to dump the wash water. Washing is repeated four times. Then the rack is inverted and tapped gently on a paper towel to remove most of the remaining wash. […] The rack is gently shaken at 2.5 min intervals to ensure the enzyme maintains an ample supply of substrate. Generation of the blue colored signal is terminated by addition of acidic stop solution (0.50-ml). The absorbance of the solution in each tube is measured spectrophotometrically at 450 nm.
The concentration of analyte in the samples is determined from a regression function in the form of y=m ln(x)+b.
The cross reactivity, or specificity, of the immunoassay is evaluated to determine if other test substances found in seed coatings would interfere with measurement of thiamethoxam. Test substances are dissolved in 1% methanol/water to concentrations ranging from 1000 to 0.01 ng/ml. Aliquots of each concentration are analyzed as described above. The reactivity of each test substance over this range is determined as previously described in Brady, J. F; Turner, J.; Skinner, D. H. “Application of a triasulfuron enzyme immunoassay to the analysis of incurred residues in soil and water samples.” J. Agric. Food Chem. 1995, 43:2542–2547.

[2] = tested on: polyclonal antibody of the thiamethoxam immunoassay; assay: Typical standard curve for the thiamethoxam immunoassay; type: binding
Experimental: A portion of the seed extract is diluted into 1% MeOH/H2O until the expected concentration of thiamethoxam is brought within range of the calibration curve, 0.5 to 120 parts per billion. Antibody-coated tubes are labeled and placed in a tube rack such that the first and last tubes are standards and the remaining standards and samples are intermixed. The tube rack grips each tube such that the rack may be inverted without loss of the tubes. An aliquot of a standard or sample (0.5 mL) is added to all corresponding tubes. Enzyme conjugate solution (0.5 mL) is added to all tubes. The rack is shaken gently to mix the contents of all tubes. Tubes are incubated for 20 min at room temperature. The rack is inverted to decant the contents of all tubes. Distilled H2O is added to all tubes to overflowing using a flip-top wash bottle and the wash is decanted. Tubes are washed an additional three times. After the final wash, the rack is inverted and the tubes are gently tapped upon a clean paper towel to remove excess wash. Enzyme substrate (0.5 mL) is added to all tubes which are incubated for 10 min at room temperature. The rack is shaken gently every 2.5 min during this incubation. Acidic stop solution (1 M HCl, 0.5 mL) is added to all tubes to terminate signal generation. […] The absorbances of the standards are used to construct a calibration curve, a regression function in the form of […]. The absorbance of each sample is inserted into the function to determine the concentration of the neonicotinoid pesticide in the diluted sample. The resulting concentration is multiplied by the dilution factor to calculate the amount of neonicotinoid pesticide in the original sample. The function describing the response of the thiamethoxam standards is generated by regression analysis.

Row | Structure (SMILES) | Percent Reactivity Relative to Thiamethoxam [1] | further results
1 | N#Cc1c[nH]cc1-c1cccc2c1OC(F)(F)O2 [Fludioxonil] | NR | 
2 | O=[N+]([O-])NC1=NCCN1Cc1ccc(Cl)nc1 [Imidacloprid] | ^2NR | 
3 | CN1COCN(Cc2cnc(Cl)s2)/C1=N\[N+](=O)[O-] [Thiamethoxam] | 100% | reactivity with the immunoassay (in words) ([1]; among the test substances analyzed): significantly reactive; Absorbance at 450 nm (Analytical response) ([2]; Concentration of Thiamethoxam 0.5 Parts Per Billion): 1.3618; Absorbance at 450 nm (Analytical response) ([2]; Concentration of Thiamethoxam 3 Parts Per Billion): 1.0283; Absorbance at 450 nm (Analytical response) ([2]; Concentration of Thiamethoxam 20 Parts Per Billion): 0.6636; Absorbance at 450 nm (Analytical response) ([2]; Concentration of Thiamethoxam 120 Parts Per Billion): 0.3145
4 | CCOP(=S)(OCC)Oc1nc(Cl)c(Cl)cc1Cl [Chlorpyrifos] | NR | 
5 | CCN(CC)c1nc(C)cc(OP(=S)(OC)OC)n1 [Primifos-methyl] | NR | 
6 | CN/C(=N\[N+](=O)[O-])NCc1cnc(Cl)s1 [Clothiadin] | <1.0% | 
7 | FC(F)(F)C(=NOCC1OCCO1)c1ccc(Cl)cc1 [Fluxofenim] | NR | 
8 | CC1=C(C(=O)Nc2ccccc2)SCCO1 [Carboxin] | NR | 
9 | COCC(=O)N(c1c(C)cccc1C)C(C)C(=O)OC (stereo not drawn) [Metalaxyl] | NR | 
10 | N#CSCSc1nc2ccccc2s1 [TCMTB] | NR | 
11 | O=[N+]([O-])c1c(Cl)c(Cl)c(Cl)c(Cl)c1Cl [Pentachloronitrobenzene] | NR | 
12 | COCC(=O)N(c1c(C)cccc1C)[C@H](C)C(=O)OC [Mefenoxam (R-Metalaxyl), Mefenoxam] | NR | 
13 | CCCCC(C#N)(Cn1cncn1)c1ccc(Cl)cc1 (stereo not drawn) [Systhane (Myclobutanil), Myclobutanil] | NR | 
14 | O=C1C2CC=CCC2C(=O)N1SC(Cl)(Cl)Cl (stereo not drawn) [Captan] | NR | 
15 | CC1COC(Cn2cncn2)(c2ccc(Oc3ccc(Cl)cc3)cc2Cl)O1 (stereo not drawn) [Difenoconazole] | NR | 
16 | COC(=O)NC(=S)Nc1ccccc1NC(=S)NC(=O)OC [Thiophanate-methyl] | NR | 
